Results on eight compounds are retold here after patent publication US20260256925A1, “INDAZOLE DERIVATIVES AS ESTROGEN RECEPTOR DEGRADERS” (REGENTS OF THE UNIVERSITY OF MICHIGAN, priority 2022, published 2026).

pIC50: −log10 of the molar value. A value given as a limit tells only on which side of the number the result lay.

The target in assay [1] is T1, ER (Homo sapiens, UniProt P03372).
T1 construct: endogenous in cells; probably T47D or MCF-7
T1 sequence (P03372 1-595): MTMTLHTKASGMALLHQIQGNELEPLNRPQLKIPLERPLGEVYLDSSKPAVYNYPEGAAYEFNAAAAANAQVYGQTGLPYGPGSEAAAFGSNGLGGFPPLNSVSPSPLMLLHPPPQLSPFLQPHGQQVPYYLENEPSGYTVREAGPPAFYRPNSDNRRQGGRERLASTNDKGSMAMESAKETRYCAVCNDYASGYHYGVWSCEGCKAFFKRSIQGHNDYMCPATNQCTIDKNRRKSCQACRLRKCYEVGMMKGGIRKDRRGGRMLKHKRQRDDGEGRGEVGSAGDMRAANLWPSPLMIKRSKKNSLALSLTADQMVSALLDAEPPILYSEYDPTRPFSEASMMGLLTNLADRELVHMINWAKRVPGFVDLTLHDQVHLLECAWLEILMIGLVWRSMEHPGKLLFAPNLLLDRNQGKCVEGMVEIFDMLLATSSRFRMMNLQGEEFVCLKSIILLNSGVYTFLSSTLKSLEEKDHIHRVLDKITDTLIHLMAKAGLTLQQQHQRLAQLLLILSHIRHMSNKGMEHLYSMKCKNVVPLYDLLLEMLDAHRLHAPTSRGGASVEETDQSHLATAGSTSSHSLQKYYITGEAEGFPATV
Kind of assay: In-cell Western (ICW) ER degradation assay in T47D cells. The assay is classed as cell-based. The note with it: T47D cells, 16 hrs; for Dmax: T47D, read-out: ER T47D ICW Dmax (%). The protocol: (§1) ERa degradative activity of compounds can be assessed in MCF-7 and T47D Cells. MCF-7 and T47D cell are seeded and are subsequently treated with the compounds at certain concentrations (e.g., 0.02 to 300 nM). DMSO can be used as vehicle control. Cells are fixed and are blocked with Intercept (PBS) Blocking Buffer (e.g., Li—COR, Odyssey Blocking Buffer), and are stained with ER (e.g., 1:500, Cell signaling) primary antibody for overnight at cold room. Secondary Antibody (e.g., IRDye 800CW Goat anti-Rabbit IgG) and CellTag 700 Stain are added in Intercept (PBS) Blocking Buffer. Finally, cell plate is placed in incubator to dry. Image and signal are captured on Odyssey® DLx Imaging System.
(§2) In-cell Western (ICW) assays in MCF-7 and T47D cell lines.
(§3) Procedures for ICW assays
(§4) In vitro Assay: MCF-7 and T47D ICW assay
(§5) Day 3: After 16 hrs of compounds treatment, cells were fixed by 4% PFA and permeabilized with elution buffer (0.1% Triton X-100 in 1% PBS Solution). Subsequently, cells were blocked with Intercept (PBS) Blocking Buffer (Li—COR, Odyssey Blocking Buffer), and were stained with ER (1:500, Cell signaling) primary antibody for overnight at cold room.
(§6) Day 4: Remove the buffer, add IRDye 800CW Goat anti-Rabbit IgG Secondary Antibody (1:2000) and CellTag 700 Stain (1:500) in Intercept (PBS) Blocking Buffer. Finally, cell plate is placed in incubator to dry. Image and signal were captured on Odyssey® DLx Imaging System.

A further assay concerns the target T2, CRBN/DDB1 (Homo sapiens, UniProt Q96SW2).
T2 construct: purchased Wuxi RP210521GA
The assay is classed as binding. The note with it: HTRF, Cy5-labeled Thalidomide probe. On the procedure:
The binding potency was determined using HTRF assay technology (Perkin Elmer). Compounds were serially diluted in DMSO and 0.2 μL volume was transferred to white 384-well plate.

In assay [2] the target is T1, ER. Briefly: In-cell Western (ICW) ER degradation assay in MCF-7 cells. Conditions: 16 hrs; for Dmax: MCF7, MCF-7 cells, read-out: ER MCF7 ICW Dmax (%); for DC50: read-out: ER MCF7 ICW DC50. The assay is classed as cell-based. The protocol:
as §1, §2, §3, §4, §5, §6

T2 sequence (Q96SW2 whole entry): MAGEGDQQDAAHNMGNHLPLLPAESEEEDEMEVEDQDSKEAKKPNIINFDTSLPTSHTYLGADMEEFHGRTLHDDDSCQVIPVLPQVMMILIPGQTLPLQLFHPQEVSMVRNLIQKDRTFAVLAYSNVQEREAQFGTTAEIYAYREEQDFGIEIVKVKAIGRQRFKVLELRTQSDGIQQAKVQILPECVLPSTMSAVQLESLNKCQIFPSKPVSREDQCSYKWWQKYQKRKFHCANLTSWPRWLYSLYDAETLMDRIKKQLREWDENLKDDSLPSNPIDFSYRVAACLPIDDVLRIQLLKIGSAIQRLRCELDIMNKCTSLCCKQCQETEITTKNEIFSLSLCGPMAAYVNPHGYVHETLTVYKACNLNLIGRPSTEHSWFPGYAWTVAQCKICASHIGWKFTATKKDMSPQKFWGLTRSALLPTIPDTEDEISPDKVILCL
T2 sequence (Q16531 whole entry partner): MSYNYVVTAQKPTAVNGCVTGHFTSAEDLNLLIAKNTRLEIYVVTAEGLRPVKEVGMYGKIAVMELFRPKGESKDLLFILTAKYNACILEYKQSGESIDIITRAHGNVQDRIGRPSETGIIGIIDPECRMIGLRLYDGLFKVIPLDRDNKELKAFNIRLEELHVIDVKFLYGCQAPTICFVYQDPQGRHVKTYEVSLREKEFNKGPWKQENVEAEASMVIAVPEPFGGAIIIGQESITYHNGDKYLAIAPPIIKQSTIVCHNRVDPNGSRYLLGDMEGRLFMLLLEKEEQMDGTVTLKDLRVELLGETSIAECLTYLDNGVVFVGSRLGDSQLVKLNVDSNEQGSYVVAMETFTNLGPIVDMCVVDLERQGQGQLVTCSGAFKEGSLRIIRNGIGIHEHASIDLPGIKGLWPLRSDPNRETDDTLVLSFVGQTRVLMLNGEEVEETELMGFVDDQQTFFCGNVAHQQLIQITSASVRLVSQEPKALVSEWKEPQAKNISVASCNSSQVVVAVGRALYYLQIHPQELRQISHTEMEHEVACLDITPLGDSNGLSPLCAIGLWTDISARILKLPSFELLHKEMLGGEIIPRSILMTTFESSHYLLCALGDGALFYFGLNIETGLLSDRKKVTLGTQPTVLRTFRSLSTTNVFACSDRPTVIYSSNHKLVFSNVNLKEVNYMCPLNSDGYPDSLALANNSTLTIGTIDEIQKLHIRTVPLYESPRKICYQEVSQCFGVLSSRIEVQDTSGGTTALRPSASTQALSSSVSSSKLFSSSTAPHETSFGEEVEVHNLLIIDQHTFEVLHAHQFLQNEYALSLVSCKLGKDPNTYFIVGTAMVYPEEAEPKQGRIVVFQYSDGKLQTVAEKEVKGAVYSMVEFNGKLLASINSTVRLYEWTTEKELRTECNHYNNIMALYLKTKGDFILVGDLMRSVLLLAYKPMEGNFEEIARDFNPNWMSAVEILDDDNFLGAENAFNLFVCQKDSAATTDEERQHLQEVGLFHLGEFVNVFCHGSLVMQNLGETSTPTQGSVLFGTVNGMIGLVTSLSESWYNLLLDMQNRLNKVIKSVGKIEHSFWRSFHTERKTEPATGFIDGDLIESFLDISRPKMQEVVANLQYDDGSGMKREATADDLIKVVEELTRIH

In the case of `C[C@H]1Cc2c(ccc3[nH]ncc23)[C@H](c2ccc(N3CCC4(CC3)CC(CN3CCN(c5ccc(C(=O)NC6CCC(=O)NC6=O)nc5)CC3)C4)cn2)N1CC(F)(F)F` (stereo in doubt) [Compound A9, N-(2,6-dioxopiperidin-3-yl)-5-(4-((7-(6-((6R,8S)-8-methyl-7-(2,2,2-trifluoroethyl)-6,7,8,9-tetrahydro-3H-pyrazolo[4,3-f]isoquinolin-6-yl)pyridin-3-yl)-7-azaspiro[3.5]nonan-2-yl)methyl)piperazin-1-yl)picolinamide], the DC50 on ER [1] and on ER [2] (MCF-7 cells) was under 1 nM in each case. Also, the Dmax at ER [1] and on ER [2] was 50 to 75% in each case. This compound showed a pIC50 against CRBN/DDB1 of 6.30 to 7.30.
Regarding `C[C@H]1Cc2c(ccc3[nH]ncc23)[C@H](c2ccc(N3CCC4(CC3)CC(CN3CCC(c5ccc(NC6CCC(=O)NC6=O)cc5)CC3)C4)cn2)N1CC(F)(F)F` (stereo in doubt) [Compound A10, 3-((4-(1-((7-(6-((6R,8S)-8-methyl-7-(2,2,2-trifluoroethyl)-6,7,8,9-tetrahydro-3H-pyrazolo[4,3-f]isoquinolin-6-yl)pyridin-3-yl)-7-azaspiro[3.5]nonan-2-yl)methyl)piperidin-4-yl)phenyl)amino)piperidine-2,6-dione], the DC50 on ER [1] and at ER [2] (MCF-7 cells) was under 1 nM throughout. The Dmax at ER [1] and on ER [2] was 50 to 75% throughout. Besides, the pIC50 against CRBN/DDB1 is 6.30 to 7.30.
For `C[C@H]1Cc2c(ccc3[nH]ncc23)[C@H](c2ccc(N3CCC4(CC3)CC(CN3CCN5c6cc7c(cc6OC[C@@H]5C3)C(=O)N([C@@H]3CCC(=O)NC3=O)C7)C4)cn2)N1CC1(F)CC1` (stereo in doubt) [Compound A13, (R)-3-((S)-3-((7-(6-((6R,8S)-7-((1-fluorocyclopropyl)methyl)-8-methyl-6,7,8,9-tetrahydro-3H-pyrazolo[4,3-f]isoquinolin-6-yl)pyridin-3-yl)-7-azaspiro[3.5]nonan-2-yl)methyl)-8-oxo-1,2,3,4,4a,5,8,10-octahydro-9H-pyrazino[1′,2′:4,5][1,4]oxazino[2,3-f]isoindol-9-yl)piperidine-2,6-dione], the DC50 on ER [1] and on ER [2] (MCF-7 cells) was under 1 nM in each case. Further, the maximal degradation (Dmax) on ER [1] lay in the range of 50 to 75%; on ER [2] it was 25 to 50%. The compound further had a pIC50 against CRBN/DDB1 of over 7.30.
Turning to `C[C@H]1Cc2c(ccc3[nH]ncc23)[C@@H](c2ccc(N3CC4(CCC(CN5CCN6c7ccc8c(c7OC[C@@H]6C5)CN([C@@H]5CCC(=O)NC5=O)C8=O)CC4)C3)nc2)N1CC(F)(F)F` (stereo in doubt) [Compound A18, (R)-3-((S)-7-((2-(5-((6S,8S)-8-methyl-7-(2,2,2-trifluoroethyl)-6,7,8,9-tetrahydro-3H-pyrazolo[4,3-f]isoquinolin-6-yl)pyridin-2-yl)-2-azaspiro[3.5]nonan-7-yl)methyl)-1-oxo-1,3,5,5a,6,7,8,9-octahydro-2H-pyrazino[1′,2′:4,5][1,4]oxazino[2,3-e]isoindol-2-yl)piperidine-2,6-dione], the DC50 at ER [1] and on ER [2] (MCF-7 cells) was 1 to 10 nM each time. Further, the Dmax at ER [1] and on ER [2] was 50 to 75% throughout. Further, the pIC50 at CRBN/DDB1 is 6.30 to 7.30.
With `C[C@H]1Cc2c(ccc3[nH]ncc23)[C@@H](c2ccc(N3CCC(CN4CCN5c6cc7c(cc6OC[C@H]5C4)C(=O)N([C@@H]4CCC(=O)NC4=O)C7)CC3)nc2)N1CC(F)(F)F` (stereo in doubt) [Compound A20, (R)-3-((R)-3-((1-(5-((6S,8S)-8-methyl-7-(2,2,2-trifluoroethyl)-6,7,8,9-tetrahydro-3H-pyrazolo[4,3-f]isoquinolin-6-yl)pyridin-2-yl)piperidin-4-yl)methyl)-8-oxo-1,2,3,4,4a,5,8,10-octahydro-9H-pyrazino[1′,2′:4,5][1,4]oxazino[2,3-f]isoindol-9-yl)piperidine-2,6-dione], the DC50 at ER [1] and on ER [2] (MCF-7 cells) was 10 to 100 nM each time. Further, the values for the Dmax on ER [1] and on ER [2] were 50 to 75% and 25 to 50%, respectively. The compound also had a pIC50 at CRBN/DDB1 of over 7.30.
With `C[C@@H]1Cc2c(ccc3[nH]ncc23)[C@@H](c2c(F)cc(N3CCC(CN4CCN5c6ccc7c(c6OC[C@@H]5C4)CN(C4CCC(=O)NC4=O)C7=O)CC3)cc2F)N1CC(F)F` (stereo partly drawn) [Compound A2, 3-((S)-7-((1-(4-((6S,8R)-7-(2,2-difluoroethyl)-8-methyl-6,7,8,9-tetrahydro-3H-pyrazolo[4,3-f]isoquinolin-6-yl)-3,5-difluorophenyl)piperidin-4-yl)methyl)-1-oxo-1,3,5,5a,6,7,8,9-octahydro-2H-pyrazino[1′,2′:4,5][1,4]oxazino[2,3-e]isoindol-2-yl)piperidine-2,6-dione], the DC50 on ER [1] and at ER [2] (MCF-7 cells) was under 1 nM in each case. In addition, the Dmax at ER [1] and on ER [2] was 50 to 75% each time. Moreover, the pIC50 at CRBN/DDB1 was 6.30 to 7.30.
Turning to `C[C@@H]1Cc2c(ccc3[nH]ncc23)[C@@H](c2ccc(N3CCC4(CC3)CC(CN3CCN5c6cc7c(cc6OC[C@H]5C3)C(=O)N([C@@H]3CCC(=O)NC3=O)C7)C4)cn2)N1CC1(F)CC1` [Compound A14, (R)-3-((R)-3-((7-(6-((6S,8R)-7-((1-fluorocyclopropyl)methyl)-8-methyl-6,7,8,9-tetrahydro-3H-pyrazolo[4,3-f]isoquinolin-6-yl)pyridin-3-yl)-7-azaspiro[3.5]nonan-2-yl)methyl)-8-oxo-1,2,3,4,4a,5,8,10-octahydro-9H-pyrazino[1′,2′:4,5][1,4]oxazino[2,3-f]isoindol-9-yl)piperidine-2,6-dione], the DC50 on ER [1] and on ER [2] (MCF-7 cells) was under 1 nM throughout. For the same compound, the results for the Dmax at ER [1] and on ER [2] were over 75% and 50 to 75%, respectively. On CRBN/DDB1, this compound gave a pIC50 of 6.30 to 7.30.
As to “(S)-3-((R)-7-((1-(5-((6S,8R)-8-methyl-7- (2,2,2-trifluoroethyl)-6,7,8,9-tetrahydro-3H- pyrazolo[4,3-f]isoquinolin-6-yl)pyridin-2- yl)piperidin-4-yl)methyl)-1-oxo- 1,3,5,5a,6,7,8,9-octahydro-2H- pyrazino[1′,2′:4,5][1,4]oxazino[2,3-c]isoindol- 2-yl)piperidine-2,6-dione [Compound A23]”, at ER [1], the half-maximal degradation concentration (DC50) is 1 to 10 nM; the “ER T47D ICW Dmax (%)” value was “B (“B”: >50% and <75%)”. Moreover, at CRBN/DDB1, the pIC50 was 5.30 to 6.30. On ER [2] (MCF-7 cells), the “ER MCF7 ICW Dmax (%)” value is “B (“B”: >50% and <75%)”; the DC50 is 1 to 10 nM.

For orientation: DC50 means the concentration giving 50% degradation. A word on the Dmax: it is the largest share of the target that was removed. By pIC50 is commonly meant the negative decadic logarithm of the IC50, by convention in mol/L. Low values mean a high IC50, high ones a low IC50.
